Results published in PMC5321639, “Design and pharmacodynamics of recombinant NZ2114 histidine mutants with improved activity against methicillin-resistant Staphylococcus aureus” (AMB Express, 2017).
Converted amounts (≈) assume the structure as drawn. “And” between values parts separate entries of the source, which are not always exact repeats. Equal entries are not always repeated. Where a SMILES comes first, the peptide text is derived from it. Bridges are numbered along the chain shown (N, C = ends).

Columns and labels:
S. aureus ATCC43300 [1] = assay: Effect of pH on activity (MIC); type: cell-based, Staphylococcus aureus; conditions: then MIC assay
Method: (§1) The peptide solutions were diluted twofold with the range of final concentrations were 0.015–32 µg/ml (0.003–7.273 µM) for purified H1, H2, H3, H6, and H8. The test strains were grown in MHB medium at 37 °C to an OD600 of 0.4 and diluted to 1 × 10^5 CFU/ml. The 10 µl peptide and 90 µl cell suspension were added into each well. All assays were performed in triplicate. The antimicrobial activity of NZ2114 and vancomycin were tested as positive controls. The plates were incubated at 37 °C for 18–24 h. MIC was defined as the lowest peptide concentration of ones at which there was no visible growth (Tian et al. [2009]).
(§2) The effect of pH, temperature, NaCl concentration and proteinase on the activity of peptides was evaluated. Peptides were diluted twofold, then adjusted to a pH range from 2.0 to 10.0 and incubated at 37 °C for 4 h. The thermal stability of purified peptides was determined after 1-h incubation of peptides at 4, 20, 40, 60, 80 and 100 °C in deionized water, respectively. Aliquots of peptides were incubated in various proteinases solutions [pepsin (pH 2.0), trypsin (pH 8.0), proteinase K (pH 7.0)] at a ratio of 1:10, w/w (proteinase: peptide) at 37 °C for 3 h. For the ion stability, peptides were incubated in 50, 100, 200, 300, 400, 500 mM sodium chloride solutions, respectively. Other methods and conditions were prepared as the MIC assay described above (Li et al. [2015]; Qu et al. [2016]).

S. suis CVCC3928 = assay: MIC assay; type: cell-based, Streptococcus suis; conditions: MHB, 1 × 10^5 CFU/ml, 37 °C, 18–24 h, triplicate
Method: as §1

S. suis CVCC606 = assay: MIC assay; type: cell-based, Streptococcus suis; conditions: MHB, 1 × 10^5 CFU/ml, 37 °C, 18–24 h, triplicate
Method: as §1

S. suis CVCC3309 = assay: MIC assay; type: cell-based, Streptococcus suis; conditions: MHB, 1 × 10^5 CFU/ml, 37 °C, 18–24 h, triplicate
Method: as §1

S. aureus ATCC43300 [2] = assay: Effect of NaCl concentration on activity (MIC); type: cell-based, Staphylococcus aureus
Method: as §1, §2

E. coli CICC21530 = assay: MIC assay; type: cell-based, Escherichia coli; conditions: MHB, 1 × 10^5 CFU/ml, 37 °C, 18–24 h, triplicate
Method: as §1

E. coli CVCC195 = assay: MIC assay; type: cell-based, Escherichia coli; conditions: MHB, 1 × 10^5 CFU/ml, 37 °C, 18–24 h, triplicate
Method: as §1

S. aureus ATCC43300 [3] = assay: Effect of temperature on activity (MIC); type: cell-based, Staphylococcus aureus; conditions: then MIC assay
Method: as §1, §2

mice red blood cells = assay: Hemolytic assay; type: cell-based; conditions: 0.23 to 7.27 μM (1–32 μg/ml), 37 °C 1 h
Method: The mice blood cells were washed three times in stroke-physiological saline solution (0.9% NaCl) and centrifuged at 4 °C, 2000 rpm for 5 min. A 50-μl cell was diluted to 8% (v/v), added into 96-well plates, and mixed with 50-μl peptide to the final concentrations ranging from […]. The plates were incubated at 37 °C for 1 h, and centrifuged at 4 °C, 5000 rpm for 5 min. The absorbance of supernatants was measured at 540 nm, and 0 and 100% hemolysis was measured by 0.9% NaCl and 0.1% Triton X-100, respectively. The hemolysis percentages were calculated by the following equation: [(Abs540 nm in H1, H2, H3 solution − Abs540 nm in 0.9% NaCl)/(Abs540 nm in 0.1% Triton X-100 − Abs540 nm in 0.9% NaCl)] ×100% (Jiao et al. [2015]).

S. aureus ATCC6538 = assay: MIC assay; type: cell-based, Staphylococcus aureus; conditions: MHB, 1 × 10^5 CFU/ml, 37 °C, 18–24 h, no visible growth, triplicate
Method: as §1

S. aureus ATCC25923 = assay: MIC assay; type: cell-based, Staphylococcus aureus; conditions: MHB, 1 × 10^5 CFU/ml, 37 °C, 18–24 h, no visible growth, triplicate
Method: as §1

S. choleraesuis CVCC503 = assay: MIC assay; type: cell-based; conditions: MHB, 1 × 10^5 CFU/ml, 37 °C, 18–24 h, triplicate
Method: as §1

S. typhimurium ATCC14028 = assay: MIC assay; type: cell-based; conditions: MHB, 1 × 10^5 CFU/ml, 37 °C, 18–24 h, triplicate
Method: as §1

S. pullorum CVCC1789 = assay: MIC assay; type: cell-based; conditions: MHB, 1 × 10^5 CFU/ml, 37 °C, 18–24 h, triplicate
Method: as §1

S. aureus ATCC43300 [4] = assay: Postantibiotic effect (PAE); type: cell-based, Staphylococcus aureus; conditions: 2 h exposure at 37 °C, 1 × 10^8 CFU/ml, drug removed by 1:10^3 dilution, mean ± SD, n = 3
Method: After 2 h, the drug was removed by diluting 1:10^3 into the MHB and incubated at 37 °C, 250 rpm. The sample was taken to plate counting every 1 h until the bacterial cultures become turbid. The PAE was calculated by the following formula: PAE = T − C, where T is the time needed for the count of CFU in the test culture to increase 1 log10 (10-fold) above the 0 h and C is the time needed for the count of CFU in the untreated control culture to increase 1 log10 above the 0 h (Giguère et al. [2012]).

S. pneumoniae CVCC1.8722 = assay: MIC assay; type: cell-based, Streptococcus pneumoniae; conditions: MHB, 1 × 10^5 CFU/ml, 37 °C, 18–24 h, triplicate
Method: as §1

S. pneumoniae CVCC2350 = assay: MIC assay; type: cell-based, Streptococcus pneumoniae; conditions: MHB, 1 × 10^5 CFU/ml, 37 °C, 18–24 h, triplicate
Method: as §1

S. aureus ATCC43300 [5] = assay: Effect of proteinases on activity (MIC); type: cell-based, Staphylococcus aureus; conditions: trypsin (pH 8.0), 1:10 w/w proteinase:peptide, 37 °C for 3 h, then MIC assay
Method: as §1, §2

CC[C@H](C)[C@@H]1NC(=O)[C@H](CO)NC(=O)[C@H](CCCCN)NC(=O)[C@@H]2CSSC[C@@H](C(=O)N[C@@H](Cc3ccc(O)cc3)C(=O)O)NC(=O)[C@H](CCCCN)NC(=O)[C@@H]3CSSC[C@H](NC(=O)[C@H](CCCNC(=N)N)NC(=O)[C@H](CC(C)C)NC(=O)[C@H](CC(=O)O)NC(=O)[C@H](CC(=O)O)NC(=O)[C@H](CCC(=O)O)NC(=O)[C@H](CC(N)=O)NC(=O)[C@H](Cc4c[nH]c5ccccc45)NC(=O)[C@@H]4CCCN4C(=O)CNC(=O)[C@H](CC(N)=O)NC(=O)[C@@H](NC(=O)CNC(=O)[C@H](Cc4ccccc4)NC(=O)CN)CSSC[C@H](NC(=O)[C@H](Cc4ccc(O)cc4)NC(=O)CNC(=O)CNC(=O)[C@H](CCCCN)NC(=O)[C@H](Cc4ccc(O)cc4)NC(=O)CNC(=O)[C@H](CCCCN)NC1=O)C(=O)N[C@@H](C)C(=O)N[C@@H](CCCCN)C(=O)NCC(=O)NCC(=O)N[C@@H](Cc1ccccc1)C(=O)N[C@@H](C(C)C)C(=O)N3)C(=O)N[C@@H](CCCNC(=N)N)C(=O)N[C@@H](CC(N)=O)C(=O)N[C@@H](Cc1c[nH]cn1)C(=O)N2 [H2] (H-GFGCNGPWNEDDLRCRNHCKSIKGYKGGYCAKGGFVCKCY-OH; disulfide 4-30, 15-37, 19-39 (inferred); N-terminus and C-terminus assumed)
MIC after incubation at pH2 (S. aureus ATCC43300 [1]; pH 2, 37 °C for 4 h): 0.114 μM | MIC after incubation at pH4 (S. aureus ATCC43300 [1]; pH 4, 37 °C for 4 h): 0.114 μM | MIC after incubation at pH6 (S. aureus ATCC43300 [1]; pH 6, 37 °C for 4 h): 0.114 μM | MIC after incubation at pH8 (S. aureus ATCC43300 [1]; pH 8, 37 °C for 4 h): 0.114 μM | MIC after incubation at pH10 (S. aureus ATCC43300 [1]; pH 10, 37 °C for 4 h): 0.114 μM | MIC (S. suis CVCC3928): 0.014 µM (≈ 0.062 µg/mL) | MIC (S. suis CVCC606): 0.028 µM (≈ 0.124 µg/mL) | MIC (S. suis CVCC3309): 0.028 µM (≈ 0.124 µg/mL) | MIC in 50 mM NaCl (S. aureus ATCC43300 [2]; incubated in 50 mM sodium chloride solution): 0.114 µM (≈ 0.505 µg/mL) | MIC in 100 mM NaCl (S. aureus ATCC43300 [2]; incubated in 100 mM sodium chloride solution): 0.114 µM (≈ 0.505 µg/mL) | MIC in 300 mM NaCl (S. aureus ATCC43300 [2]; incubated in 300 mM sodium chloride solution): 0.227 µM (≈ 1.01 µg/mL) | MIC in 400 mM NaCl (S. aureus ATCC43300 [2]; incubated in 400 mM sodium chloride solution): 0.227 µM (≈ 1.01 µg/mL) | MIC in 500 mM NaCl (S. aureus ATCC43300 [2]; incubated in 500 mM sodium chloride solution): 0.227 µM (≈ 1.01 µg/mL) | MIC (E. coli CICC21530): >7.273 µM | MIC (E. coli CVCC195): >7.273 µM | MIC after incubation at 4 °C (S. aureus ATCC43300 [3]; 1 h at 4 °C in deionized water): 0.114 µM (≈ 0.505 µg/mL) | MIC after incubation at 20 °C (S. aureus ATCC43300 [3]; 1 h at 20 °C in deionized water): 0.114 µM (≈ 0.505 µg/mL) | MIC after incubation at 40 °C (S. aureus ATCC43300 [3]; 1 h at 40 °C in deionized water): 0.114 µM (≈ 0.505 µg/mL) | MIC after incubation at 60 °C (S. aureus ATCC43300 [3]; 1 h at 60 °C in deionized water): 0.114 µM (≈ 0.505 µg/mL) | hemolytic activity (mice red blood cells): little or no hemolytic activity | MIC (S. aureus ATCC6538): 0.057 µM (≈ 0.253 µg/mL) | MIC (S. aureus ATCC25923): 0.028 µM (≈ 0.124 µg/mL) | MIC (S. choleraesuis CVCC503): >7.273 µM | MIC (S. typhimurium ATCC14028): >7.273 µM | MIC (S. pullorum CVCC1789): >7.273 µM | PAE (S. aureus ATCC43300 [4]; 1× MIC): 0.63 h and 0.63 ± 0.13 h | PAE (S. aureus ATCC43300 [4]; 2× MIC): 1.75 ± 0.04 h | MIC (S. pneumoniae CVCC1.8722): 0.227 µM (≈ 1.01 µg/mL) | MIC (S. pneumoniae CVCC2350): 0.227 µM (≈ 1.01 µg/mL) | MIC after Trypsin (S. aureus ATCC43300 [5]): 0.454 µM (≈ 2.01 µg/mL)
